The data set in a line: Apparent aqueous solubility of drug in 1% polymer solution (30 min standing, centrifugation, HPLC of supernatant). Format: physicochemical. As to conditions: water without polymer; reference value for the increase; read-out: aqueous probucol solubility. How it is done: The following materials are used. The polyacrylic acid (PAA) has a molecular weight of about 1800, the polyethylene glycol used has either a molecular weight of 4000 or 8000 (as indicated in Table I below). The API chosen is either Probucol (>98% purity) or Ketoprofen (>98% purity). Each polymer or polymer combination shown in Table 1 is added to water in an amount to form 1% polymer solutions. Concentrated API solutions in methanol are prepared by adding 0.2 grams of drug to 10 ml of methanol (20 g/L of drug in methanol).
For each example in Table 1, 912 μl of the indicated polymer solution is transferred into individual vials. Then, 48 μl of drug solution in methanol is added to the polymer solution. These mixtures are agitated via three cycles of aspiration and dispensing using the EVO 200 pipettes. […]
The solubilized drug concentration in each taken aliquot was determined by reverse phase high-performance liquid chromatography (HPLC) analysis. […]
The drug concentration is determined from the measured elution profile by using a linear calibration curve for the respective drug, which was generated by determining the least squares fit of a straight line that described the relation between the concentration of four solutions of known concentrations (about 250, 500, 750, and 1000 mg/L) and the respective peak area integral after injection of 2 μL of each drug in methanol. […]

Consider `CC(C)(Sc1cc(C(C)(C)C)c(O)c(C(C)(C)C)c1)Sc1cc(C(C)(C)C)c(O)c(C(C)(C)C)c1` [control, Probucol], for which the solubility (in general, the dissolved amount per volume that the medium holds) at 30 min turned out to be 0.042 µg/mL.

For the origin of these results see patent US20250064733A1, “USE OF PEG-BASED INTERPOLYMER COMPLEXES FOR IMPROVED SOLUBILIZATION F BCS CLASS II DRUGS” (Dow Global Technologies LLC, priority 2022, published 2025).
